Values quoted from earlier work as cited in patent US20130164233A1, “SKIN-WHITENING ESSENCE COMPOSITION CONTAINING TYROSINASE INHIBITOR” (priority 2011, published 2013).

Tested on: skin
Conditions: conventionally

Structure (SMILES): NC[C@H]1CC[C@H](C(=O)O)CC1 [tranexamic acid]
- Concentration needed to give whitening effect: higher than 3%
